One data set has as its system P388. Kind of data set: Cytotoxicity against mouse P388 cells. It is filed as functional, cell-based.
The nature of data set [1]: Toxicity against Sea urchin fertilized eggs assessed as inhibition of cell division at 5 ppm. More on the design: species or system Egg. The settings on record: echinoidea.

These results are taken from ChEMBL document CHEMBL1155765, “Haterumaimides F-I, four new cytotoxic diterpene alkaloids from an ascidian Lissoclinum species” (J Nat Prod, 2001).

The IC50 is the concentration that gives 50% inhibition. A higher IC50 goes with lower potency. As usually defined, the inhibition is the share of the control response that was lost under treatment.

In turn, `CC1(C)C[C@H](Cl)C[C@]2(C)[C@H]3C[C@@H]([C@H]4CC(=O)NC4=O)O[C@@]3(C)CC(=O)[C@@H]12` [HATERUMAIMIDE I] came in with an IC50 in the data set on P388 of over 10 µg/mL. In addition, in data set [1], the inhibition at 5 ppm came to 80%.
